Source: patent US6906094B2, “1,2,4-tribsubstituted benzenes as inhibitors of 15-lipoxygenase” (Warner-Lambert Company, priority 2000, dated 2005)

Columns and labels:
human 15-LO = molecular target: T1, human 15-LO (Homo sapiens, UniProt P16050); assay: Human Lysate 15-LO Assay (HUM15LO); assay type: biochemical; conditions: recombinant human 15-LO, 174 μM linoleic acid, 15 minutes at 4° C., 13-HODE quantitated
T1 construct: made in house; host or cells: Sf9 insect cells (baculovirus, Bac-to-Bac)
T1 sequence (P16050 1-662): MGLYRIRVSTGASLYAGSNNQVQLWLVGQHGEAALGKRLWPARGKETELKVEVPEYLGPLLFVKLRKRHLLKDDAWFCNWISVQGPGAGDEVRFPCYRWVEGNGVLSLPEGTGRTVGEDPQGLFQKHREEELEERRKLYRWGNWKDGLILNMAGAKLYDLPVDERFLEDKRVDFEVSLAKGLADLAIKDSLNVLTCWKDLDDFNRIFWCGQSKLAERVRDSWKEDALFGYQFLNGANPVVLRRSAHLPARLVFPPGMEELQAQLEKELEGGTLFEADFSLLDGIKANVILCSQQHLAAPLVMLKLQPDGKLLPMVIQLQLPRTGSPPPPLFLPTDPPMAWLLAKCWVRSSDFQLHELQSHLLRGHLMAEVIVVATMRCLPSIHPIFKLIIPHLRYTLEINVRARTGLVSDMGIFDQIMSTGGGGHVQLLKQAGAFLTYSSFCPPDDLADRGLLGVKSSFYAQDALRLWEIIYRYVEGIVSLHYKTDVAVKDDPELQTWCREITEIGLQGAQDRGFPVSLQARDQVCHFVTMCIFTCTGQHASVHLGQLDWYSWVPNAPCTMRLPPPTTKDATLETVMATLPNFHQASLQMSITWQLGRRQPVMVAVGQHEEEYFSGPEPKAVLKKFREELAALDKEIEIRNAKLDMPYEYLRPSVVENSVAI
Protocol: In the HUM15LO assay, a test compound of the present invention was incubated with 15-LO enzyme in the presence of the linoleic acid substrate. For example, a known amount of a test compound of the present invention, 100 μL of human 15-LO, and 174 μM linoleic acid in PBS containing 0.2% sodium cholate were incubated for 15 minutes at 4° C. The reaction was stopped with 100 μL of mobile phase and 10 μL of triethyl phosphite. […] 13-HODE was quantitated by comparing peak areas of individual samples with those from a standard curve generated using authentic 13-HODE. The test reaction is compared to a control reaction, which is identical to the test reaction except no test compound of the present invention is present Percent inhibition is calculated as the amount of 13-HODE produced by the test reaction divided by the amount of 13-HODE produced by the control reaction, expressed as a percent.
Human 15-LO was generated in a recombinant 15-lipoxygenase bacculovirus expression system, using Gibco/BRL/Life Technologies' Bac-to-Bac expression reagents; T4 DNA ligase, Kanamycin, Gentamicin, tetracycline, penicillin, streptomycin, Bluo-gal, IPTG, DH10Bac competent cells, SOC, LB medium, Sf-900 II SFM media, Sf9 insect cells, Cell Fectin, and EcoRI, BamHI and KpnI restriction enzymes.

[1] = molecular target: T2, rabbit reticulocyte 15-LO (Oryctolagus cuniculus, UniProt P12530); assay: Rabbit Reticulocyte 15-LO Assay (H15LO); assay type: biochemical; conditions: 2 U rabbit reticulocyte 15-LO, 174 μM linoleic acid, 15 minutes at 4° C., 13-HODE quantitated
T2 construct: 15-LO is obtained from phenylhydrazine-treated rabbits and purified according to the method of Rapoport; from tissue; host or cells: reticulocytes of phenylhydrazine-treated rabbits
T2 sequence (P12530 1-663): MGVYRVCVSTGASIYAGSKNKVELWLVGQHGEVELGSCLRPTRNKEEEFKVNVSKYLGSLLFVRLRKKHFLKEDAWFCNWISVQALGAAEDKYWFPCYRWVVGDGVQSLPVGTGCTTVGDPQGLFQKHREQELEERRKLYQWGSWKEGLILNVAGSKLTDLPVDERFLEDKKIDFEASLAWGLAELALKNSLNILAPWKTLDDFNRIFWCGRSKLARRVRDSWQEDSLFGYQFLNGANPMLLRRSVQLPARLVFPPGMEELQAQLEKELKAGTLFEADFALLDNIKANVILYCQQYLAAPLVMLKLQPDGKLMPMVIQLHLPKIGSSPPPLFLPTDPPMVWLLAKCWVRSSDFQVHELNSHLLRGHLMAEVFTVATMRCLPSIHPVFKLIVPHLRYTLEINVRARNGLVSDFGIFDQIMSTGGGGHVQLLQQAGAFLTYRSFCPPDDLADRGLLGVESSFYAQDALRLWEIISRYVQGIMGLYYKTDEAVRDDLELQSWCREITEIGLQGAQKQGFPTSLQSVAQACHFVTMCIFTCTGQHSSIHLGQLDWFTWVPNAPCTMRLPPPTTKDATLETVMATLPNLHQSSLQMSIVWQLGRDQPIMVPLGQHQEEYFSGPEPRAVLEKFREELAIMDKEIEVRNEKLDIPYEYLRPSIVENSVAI
Protocol: In the H15LO assay, a test compound was incubated with 15-LO enzyme in the presence of the linoleic acid substrate. For example, 2 units (U) of rabbit reticulocyte 15-LO and 174 μM linoleic acid were incubated with a known amount of a test compound of the present invention for 15 minutes at 4° C. The total reaction volume was 100 μL in phosphate buffer saline (PBS) containing 0.2% sodium cholate. The reaction was stopped with 100 μL of mobile phase and […] of triethyl phosphite. […] 13-HODE was quantitated by comparing peak areas of individual samples with those from a standard curve generated using authentic 13-HODE.
15-LO is obtained from phenylhydrazine-treated rabbits and purified according to the method of Rapoport (Rapoport et al., European Journal of Biochemistry, 1979;96:545-561).

| SMILES | IC50 (human 15-LO) | IC50 [1] | melting point |
| --- | --- | --- | --- |
| CCCCCCCCCCCCOC(=O)NS(=O)(=O)Nc1cc(-c2cc3cc(F)c(F)cc3[nH]2)ccc1OC [Example 1, Carbamic Acid, [[[5-(5,6-difluoro-IH-indol-2-yl)-2-methoxyphenyl]amino]-sulfonyl]-, Dodecyl Ester] | 0.006 µM | 0.017 µM |  |
| COc1ccc(C(=O)Nc2ccc(F)c(F)c2)cc1NS(=O)(=O)NC(=O)OCCc1ccccc1 (hydrate or solvate) [Example 41] |  |  | 173 to 177 °C |
| COc1ccc(C(=O)Nc2ccc(F)c(F)c2)cc1NS(=O)(=O)NC(=O)OCCc1ccccc1 [Example 41] | 0.069 µM | 0.013 µM |  |
| COc1ccc(C(=O)Nc2ccc(F)c(F)c2)cc1NS(=O)(=O)NC(=O)OCCCc1ccncc1 (hydrate or solvate) [Example 39, Carbamic Acid, [[[5-[[(3,4-difluorophenyl)amino]carbonyl]-2-methoxyphenyl]amino]sulfonyl]-, 3-(4-pyridinyl)propyl ester] |  |  | 160 to 164 °C |
| COc1ccc(-c2cc3cc(F)c(F)cc3[nH]2)cc1NS(=O)(=O)NC(=O)OCCCO [Example 45, Carbamic acid, [[[5-(5,6-difluoro-IH-indol-2-yl)-2-methoxyphenyl]amino]-sulfonyl]-3-hydroxypropyl ester] | 0.133 µM | 0.08 µM |  |
| COc1ccc(-c2cc3cc(F)c(F)cc3[nH]2)cc1NS(=O)(=O)NC(=O)OCCc1ccccc1 (hydrate or solvate) [Example 40, Carbamic Acid, [[[5-(5,6-difluoro-IH-indol-2-yl)-2-methoxyphenyl]amino]-sulfonyl]-2-phenylethyl ester] |  |  | 180 to 182 °C |
| COc1ccc(-c2cc3cc(F)c(F)cc3[nH]2)cc1NS(=O)(=O)NC(=O)OC(C)(C)C (hydrate or solvate) [Example 53, Carbamic Acid, [[[5-(5,6-difluoro-indol-2-yl)-2-methoxyphenyl]amino]-sulfonyl]-, 1,1-dimethylethyl ester] |  |  | 158 to 160 °C |
| COc1ccc(-c2cc3cc(F)c(F)cc3[nH]2)cc1NS(=O)(=O)NC(=O)OCCOC(C)C (hydrate or solvate) [Example 34, Carbamic Acid, [[[5-(5,6-difluoro-IH-indol-2-yl)-2-methoxyphenyl]amino]-sulfonyl]-2(1-methylethoxy)ethyl Ester] |  |  | 158 to 163 °C |
| COc1ccc(-c2cc3cc(F)c(F)cc3[nH]2)cc1NS(=O)(=O)NC(=O)OCC(C)C [Example 22, Carbamic Acid, [[[5-(5,6-difluoro-IH-indol-2-yl)-2-methoxyphenyl]amino]-sulfonyl]-, 2-methylpropyl ester] | 0.025 µM | 0.025 µM |  |
| COc1ccc(-c2cc3cc(F)c(F)cc3[nH]2)cc1NS(=O)(=O)NC(=O)OCCc1ccccc1 [Example 40, Carbamic Acid, [[[5-(5,6-difluoro-IH-indol-2-yl)-2-methoxyphenyl]amino]-sulfonyl]-2-phenylethyl ester] | 0.015 µM | 0.007 µM |  |
| COC(=O)COC(=O)NS(=O)(=O)Nc1cc(-c2cc3cc(F)c(F)cc3[nH]2)ccc1OC [Example 43, Acetic Acid, [[[[[[5-(5,6-difluoro-1H-indol-2-yl)-2-methoxyphenyl]amino]-sulfonyl]amino]carbonyl]oxy]-, Methyl ester] | 0.03 µM | 0.017 µM |  |
| CCCCOC(=O)NS(=O)(=O)Nc1cc(-c2cc3cc(F)c(F)cc3[nH]2)ccc1OC [Example 21, Carbamic Acid, [[[5-(5,6-difluoro-IH-indol-2-yl)-2-methoxyphenyl]amino]-sulfonyl]-, Butyl Ester] | 0.014 µM | 0.009 µM |  |
| COc1ccc(-c2cc3cc(F)c(F)cc3[nH]2)cc1NS(=O)(=O)N(C)C(=O)OCCCOCc1ccccc1 [Example 13, Carbamic Acid, [[[5-(5,6-difluoro-IH-indol-2-yl)-2-methoxyphenyl]amino]-sulfonyl]methyl-, 3(phenylmethoxy)propyl ester] | 0.03 µM | 0.012 µM |  |
| CNS(=O)(=O)Nc1cc(-c2cc3cc(F)c(F)cc3[nH]2)ccc1OC [Example 37, Sulfamide, N-[5-(5,6-diflouo-IH-indo-2-yl)-2-methoxyphenyl]-N′-methyl] | 0.007 µM | 0.005 µM |  |
| COc1ccc(NC(=O)NS(=O)(=O)Nc2cc(C(=O)Nc3ccc(F)c(F)c3)ccc2OC)cc1 [Example 66, Benzamide, N-(3,4-difluorophenyl)-4-methoxy-3-[[[[[(4-methoxyphenyl)-amino]carbonyl]amino]sulfonyl]amino]] | 0.225 µM | 0.051 µM |  |
| CNS(=O)(=O)Nc1cc(C(=O)Nc2ccc(F)c(F)c2)ccc1OC [Example 38, Benzamide, N-(3,4-difluorophenyl)-4-methoxy-3-[[(methylamino)-sulfonyl]amino]] | 0.013 µM | 0.013 µM |  |
| COc1ccc(C(=O)Nc2ccc(F)c(F)c2)cc1NS(=O)(=O)NC(=O)Nc1ccc(C(C)(C)C)cc1 [Example 59, Benzamide, N-(3,4-difluorophenyl)-3-[[[[[[4-(1,1-dimethylethyl)phenyl]-amino]carbonyl]amino]sulfonyl]amino]-4-methoxy] | 0.024 µM | 0.013 µM |  |
| COc1ccc(-c2cc3cc(F)c(F)cc3[nH]2)cc1NS(=O)(=O)NC(=O)Nc1ccc(Cl)cc1 [Example 27, Urea, N-(4-chlor phenyl)-N′-[[[5-(5,6-difluoro-IH-indol-2-yl)-2-methoxyphenyl]amino]sulfonyl]] | 0.044 µM | 0.023 µM |  |
| COc1ccc(C(=O)Nc2ccc(F)c(F)c2)cc1NS(=O)(=O)NC(=O)Nc1ccc(C(=O)O)cc1 [Example 65, Benzoic Acid, 4-[[[[[[5-[[(3,4-difluorophenyl)amino]carbonyl]-2-methoxyphenyl]amino]sulfonyl]amino]carbonyl]amino]] | 0.273 µM | 0.03 µM |  |
| CCOC(=O)NS(=O)(=O)Nc1cc(-c2cc3cc(F)c(F)cc3[nH]2)ccc1OC [Example 25, Carbamic Acid, [[[5-(5,6-difluoro-1H-indol-2-yl)-2-methoxyphenyl]amino]-sulfonyl]-, ethyl ester] | 0.034 µM | 0.015 µM |  |
| COc1ccc(-c2cc3cc(F)c(F)cc3[nH]2)cc1NS(=O)(=O)NC(=O)Nc1ccc(C)cc1 [Example 28, Urea, N-[[[5-(5,6-difluoro-IH-indol-2-yl)-2-methoxyphenyl]amino]sulfonyl]-N′-(4-methylphenyl)] | 0.018 µM | 0.039 µM |  |
